Molecules are shown by their SMILES.

Holding throughout (format): functional, cell-based
In data set [1] the target is T1, ATP-dependent translocase ABCB1 (Rattus norvegicus, UniProt P43245). The experiment in a line: TP_TRANSPORTER: increase in Doxorubicin intracellular accumulation (Doxorubicin: 17.2 uM, Azelastine: 10 uM) in C6 1V cells.
The target in data set [2] is Multidrug resistance protein 1a (Rattus norvegicus) (UniProt Q6PSM0). The data set is described as follows: TP_TRANSPORTER: increase in Doxorubicin intracellular accumulation (Doxorubicin: 17.2 uM, Azelastine: 30 uM) in C6 0.5 cells.
The target of data set [3] is T1, ATP-dependent translocase ABCB1. The experiment in a line: TP_TRANSPORTER: increase in Doxorubicin intracellular accumulation (Doxorubicin: 17.2 uM, Flezelastine: 3 uM) in C6 1V cells.
Data set [4] addresses Multidrug resistance protein 1a (Rattus norvegicus) (UniProt Q6PSM0). The experiment in a line: TP_TRANSPORTER: increase in Doxorubicin intracellular accumulation (Doxorubicin: 17.2 uM, Flezelastine: 10 uM) in C6 0.5 cells.

T1 sequence (P43245 whole entry): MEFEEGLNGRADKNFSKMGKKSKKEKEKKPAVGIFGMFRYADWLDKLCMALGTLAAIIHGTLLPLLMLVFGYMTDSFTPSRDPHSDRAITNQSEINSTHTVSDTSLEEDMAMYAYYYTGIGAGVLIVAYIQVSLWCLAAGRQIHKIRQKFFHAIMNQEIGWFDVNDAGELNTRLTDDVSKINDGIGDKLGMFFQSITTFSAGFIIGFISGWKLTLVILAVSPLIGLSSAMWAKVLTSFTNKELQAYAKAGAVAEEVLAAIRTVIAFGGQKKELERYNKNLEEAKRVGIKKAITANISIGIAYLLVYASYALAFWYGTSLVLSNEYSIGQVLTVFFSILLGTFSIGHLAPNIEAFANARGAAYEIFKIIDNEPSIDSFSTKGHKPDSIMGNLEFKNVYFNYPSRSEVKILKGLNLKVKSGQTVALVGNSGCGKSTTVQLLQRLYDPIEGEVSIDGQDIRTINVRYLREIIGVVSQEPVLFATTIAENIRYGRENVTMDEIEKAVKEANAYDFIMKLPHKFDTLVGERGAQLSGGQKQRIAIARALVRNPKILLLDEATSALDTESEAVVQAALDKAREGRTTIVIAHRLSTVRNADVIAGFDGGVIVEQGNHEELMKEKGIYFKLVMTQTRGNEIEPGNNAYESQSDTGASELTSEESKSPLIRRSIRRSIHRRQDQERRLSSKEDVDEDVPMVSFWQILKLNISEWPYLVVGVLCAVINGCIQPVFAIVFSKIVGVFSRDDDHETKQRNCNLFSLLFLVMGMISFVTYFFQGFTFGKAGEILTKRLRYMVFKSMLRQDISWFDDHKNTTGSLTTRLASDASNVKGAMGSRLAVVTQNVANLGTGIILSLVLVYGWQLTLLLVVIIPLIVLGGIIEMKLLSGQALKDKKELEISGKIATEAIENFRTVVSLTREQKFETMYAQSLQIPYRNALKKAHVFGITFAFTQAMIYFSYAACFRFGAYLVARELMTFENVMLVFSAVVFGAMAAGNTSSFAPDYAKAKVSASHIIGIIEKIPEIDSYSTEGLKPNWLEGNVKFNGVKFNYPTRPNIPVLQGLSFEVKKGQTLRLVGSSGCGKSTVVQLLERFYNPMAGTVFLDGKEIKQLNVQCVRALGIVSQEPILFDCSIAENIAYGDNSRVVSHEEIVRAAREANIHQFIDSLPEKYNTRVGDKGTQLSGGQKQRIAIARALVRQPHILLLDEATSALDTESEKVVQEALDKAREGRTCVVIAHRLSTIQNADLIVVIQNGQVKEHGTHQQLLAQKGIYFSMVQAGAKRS
Chain of Multidrug resistance protein 1a (Rattus norvegicus) (Q6PSM0 as listed by the source): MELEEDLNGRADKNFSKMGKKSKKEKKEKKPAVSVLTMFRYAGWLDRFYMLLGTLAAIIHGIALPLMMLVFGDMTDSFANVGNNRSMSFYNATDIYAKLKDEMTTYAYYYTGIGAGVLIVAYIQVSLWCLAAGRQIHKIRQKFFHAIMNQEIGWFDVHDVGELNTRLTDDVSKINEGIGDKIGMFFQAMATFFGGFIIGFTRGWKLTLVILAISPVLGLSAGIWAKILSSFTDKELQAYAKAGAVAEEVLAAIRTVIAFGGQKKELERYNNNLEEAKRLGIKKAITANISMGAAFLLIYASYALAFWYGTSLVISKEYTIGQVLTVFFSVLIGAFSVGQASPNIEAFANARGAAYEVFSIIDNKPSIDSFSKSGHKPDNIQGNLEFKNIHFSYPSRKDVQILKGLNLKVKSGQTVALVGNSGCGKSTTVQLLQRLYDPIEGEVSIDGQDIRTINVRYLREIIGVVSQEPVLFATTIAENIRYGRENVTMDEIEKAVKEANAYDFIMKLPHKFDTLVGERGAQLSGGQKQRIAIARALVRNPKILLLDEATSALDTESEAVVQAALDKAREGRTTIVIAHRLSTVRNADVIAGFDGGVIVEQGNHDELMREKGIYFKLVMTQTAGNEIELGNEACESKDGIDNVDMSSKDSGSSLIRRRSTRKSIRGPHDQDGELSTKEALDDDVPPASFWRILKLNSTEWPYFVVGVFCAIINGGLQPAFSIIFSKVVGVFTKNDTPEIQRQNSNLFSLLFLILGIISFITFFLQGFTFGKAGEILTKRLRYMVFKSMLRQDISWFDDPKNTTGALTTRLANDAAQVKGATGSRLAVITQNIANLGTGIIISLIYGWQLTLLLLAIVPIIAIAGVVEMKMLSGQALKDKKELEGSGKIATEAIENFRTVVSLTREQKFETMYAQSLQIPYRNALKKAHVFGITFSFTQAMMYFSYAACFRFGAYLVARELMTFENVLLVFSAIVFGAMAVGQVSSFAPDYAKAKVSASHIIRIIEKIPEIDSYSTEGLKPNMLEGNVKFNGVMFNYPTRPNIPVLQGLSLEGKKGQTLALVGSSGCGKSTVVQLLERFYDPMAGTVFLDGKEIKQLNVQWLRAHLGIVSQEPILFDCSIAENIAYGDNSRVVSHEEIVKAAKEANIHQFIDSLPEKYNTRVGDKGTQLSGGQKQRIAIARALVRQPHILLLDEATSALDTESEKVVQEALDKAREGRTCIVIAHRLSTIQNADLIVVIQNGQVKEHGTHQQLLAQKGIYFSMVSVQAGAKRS

Consider `CN1CCCC(n2nc(Cc3ccc(Cl)cc3)c3ccccc3c2=O)CC1` (centres undefined) [AZELASTINE], for which the Activity entry in data set [1] and in data set [2] was “inhibitor [+]” throughout.
Regarding `O=c1c2ccccc2c(Cc2ccc(F)cc2)nn1C1CCCN(CCc2ccccc2)CC1` (centres undefined) [FLEZELASTINE], the Activity result in data set [3] and in data set [4] was “inhibitor [+]” throughout.

Values taken from ChEMBL document CHEMBL2073885, “Azelastine and flezelastine as reversing agents of multidrug resistance: pharmacological and molecular studies” (Biochem Pharmacol, 1995).
